Data reported in US20260042764A1, “COMPOSITIONS AND METHODS FOR INHIBITION OF KRAS” (TheRas, Inc., priority 2022, published 2026).

Key:
SW620 cells (KRAS G12V) = test: Cell-based pERK HTRF assay in SW620 cell (Biological Example 4); conditions: pERK HTRF
Outline: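 Read-out: HTRF pERK signal (excitation 320 nm, emission 615 nm) from lysates of SW620 cells after 4 h compound exposure. Dose range was 9 points, half-log steps from 1 μM, in 0.25% DMSO; antibody incubation ran 4–24 h at room temperature.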

[1] = molecular target: T1, Avi-KRAS G12D (1-169) GppNHp/RAF1 RBD-3xFLAG (52-151) (Homo sapiens, UniProt P01116, G12D); test: Raf1-KRAS G12D-GppNHP disruption HTRF assay (Biological Example 1); type: binding
T1 construct: Avi-KRAS G12D (1-169)
Outline: (§1)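 Percent activity versus DMSO (100%) was derived from HTRF signal after KRAS–RAF1 RBD protein mix was incubated 1 h at room temperature with shaking and detection reagents were added for a further 1 h.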

[2] = molecular target: T2, Avi-KRAS G12R (1-169) GppNHp/RAF1 RBD-3xFLAG (52-151) (Homo sapiens, UniProt P01116, G12R); test: Raf1-KRAS G12R-GppNHP disruption HTRF assay (Biological Example 1); type: binding
T2 construct: Avi-KRAS G12R (1-169)
Outline: as §1

[3] = molecular target: T3, Avi-KRAS WT (1-169) GppNHp/RAF1 RBD-3xFLAG (52-151) (Homo sapiens, UniProt P01116); test: Raf1-KRAS WT-GppNHP disruption HTRF assay (Biological Example 1); type: binding
T3 construct: Avi-KRAS WT (1-169)
Outline: as §1

GP2d cells (KRAS G12D) = test: Cell-based pERK HTRF assay in GP2d cell (Biological Example 2); conditions: GP2d (KRAS G12D) cells, pERK HTRF
Outline: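 Treatment with test compounds lasted one hour in DMEM containing 10% FBS, with DMSO held at 0.25%. Dilution series: 9 points, half-log spacing, highest 1 μM or 100 nM. Lysates were incubated 4–24 h at room temperature with antibody mix, then HTRF was read at 320 nm excitation.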

[4] = molecular target: T4, Avi-KRAS G12V (1-169) GppNHp/RAF1 RBD-3xFLAG (52-151) (Homo sapiens, UniProt P01116, G12V); test: Raf1-KRAS G12V-GppNHP disruption HTRF assay (Biological Example 1); type: binding
T4 construct: Avi-KRAS G12V (1-169)
Outline: as §1

[5] = Homo sapiens, SW-620, SW620 (KRAS G12V) cells
[6] = Homo sapiens, SW-620, SW620 (KRAS G12V) cells, class symbols
[7] = KRAS G12D, GppNHp-loaded, class symbols
[8] = KRAS G12R, GppNHp-loaded, class symbols
[9] = KRAS WT, GppNHp-loaded, class symbols
[10] = KRAS G12V, GppNHp-loaded, class symbols

T1 sequence (P01116 1-169 isoform P01116-2 G12D): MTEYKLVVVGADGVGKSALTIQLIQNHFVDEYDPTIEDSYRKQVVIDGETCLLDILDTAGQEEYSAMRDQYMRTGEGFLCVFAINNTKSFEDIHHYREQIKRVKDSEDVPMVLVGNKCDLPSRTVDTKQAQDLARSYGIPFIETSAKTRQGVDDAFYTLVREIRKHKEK
T3 sequence (P01116 1-169 isoform P01116-2): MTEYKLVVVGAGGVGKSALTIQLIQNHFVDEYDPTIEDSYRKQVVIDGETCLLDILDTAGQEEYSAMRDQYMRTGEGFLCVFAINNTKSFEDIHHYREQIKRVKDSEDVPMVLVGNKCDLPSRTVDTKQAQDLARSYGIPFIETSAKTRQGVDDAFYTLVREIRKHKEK
T2 sequence (P01116 1-169 isoform P01116-2 G12R): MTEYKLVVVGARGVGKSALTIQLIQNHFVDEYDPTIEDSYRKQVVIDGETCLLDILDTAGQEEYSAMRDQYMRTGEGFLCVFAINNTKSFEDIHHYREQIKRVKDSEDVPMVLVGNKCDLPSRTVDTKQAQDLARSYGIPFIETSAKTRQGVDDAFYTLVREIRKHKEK
T4 sequence (P01116 1-169 isoform P01116-2 G12V): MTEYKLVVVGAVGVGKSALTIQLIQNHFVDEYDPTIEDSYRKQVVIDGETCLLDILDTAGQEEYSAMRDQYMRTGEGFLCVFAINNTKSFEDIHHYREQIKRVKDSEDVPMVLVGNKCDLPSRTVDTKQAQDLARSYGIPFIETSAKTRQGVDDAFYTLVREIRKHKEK

Structure (SMILES)	IC50 (SW620 cells (KRAS G12V); [5])	IC50 ([1]; KRAS G12D-GppNHp/RAF1 RBD HTRF)	IC50 ([2]; KRAS G12R-GppNHp/RAF1 RBD HTRF)	IC50 ([3]; KRAS WT-GppNHp/RAF1 RBD HTRF)	IC50 (GP2d cells (KRAS G12D); GP2d)	IC50 ([4]; KRAS G12V-GppNHp/RAF1 RBD HTRF)	IC50 (SW620 cells (KRAS G12V); [6])	IC50 [1, 7]	IC50 [2, 8]	IC50 [3, 9]	IC50 (GP2d cells (KRAS G12D); GP2d, class symbols)	IC50 [4, 10]	IC50 (SW620 cells (KRAS G12V); SW620 (KRAS G12V) cells)	IC50 (GP2d cells (KRAS G12D))
CCN(c1nc(OC[C@@]23CCCN2C[C@H](F)C3)nc2c(F)c(-c3ccc(F)c4sc(N)c(C#N)c34)c(C(F)(F)F)cc12)[C@@H]1CCS(=O)(=O)C1 [Compound 477]	< 0.1 µM	0.1 to 1 µM	0.1 to 1 µM	0.1 to 1 µM	< 0.1 µM	0.1 to 1 µM								
C[C@H]1CC[C@@H](O)CN1c1nc(OC[C@@]23CCCN2C[C@H](F)C3)nc2c(F)c(-c3ccc(F)c4sc(N)c(C#N)c34)c(C(F)(F)F)cc12 [Compound 317]	< 0.1 µM	0.1 to 1 µM	0.1 to 1 µM	0.1 to 1 µM	< 0.1 µM	1 to 10 µM								
N#Cc1c(N)sc2c(F)ccc(-c3c(C(F)(F)F)cc4c(N5CCCN6C(=O)CCC6C5)nc(OCC56CCCN5CC(F)C6)nc4c3F)c12 (stereo not drawn) [Compound 490]		0.1 to 1 µM	1 to 10 µM	1 to 10 µM		1 to 10 µM							0.1 to 1 µM	0.1 to 1 µM
CC(=O)N1CC[C@](C)(N(C)c2nc(OC[C@@]34CCCN3C[C@H](F)C4)nc3c(F)c(-c4ccc(F)c5sc(N)c(C#N)c45)c(C(F)(F)F)cc23)C1 [Compound 505]	0.1 to 1 µM	1 to 10 µM	1 to 10 µM	1 to 10 µM	< 0.1 µM	1 to 10 µM								
CCN(c1nc(OC[C@@]23CCCN2C[C@H](F)C3)nc2c(F)c(-c3ccc(F)c4sc(N)c(C#N)c34)c(C(F)(F)F)cc12)[C@@H]1C[C@@H](C)N(C(=O)N(C)C)C1 (atropisomer, axis not shown) [Compound 525]	< 0.1 µM	1 to 10 µM	1 to 10 µM	0.1 to 1 µM	< 0.1 µM	1 to 10 µM								
CC(=O)N1C[C@@H]2CC[C@H]1CN2c1nc(OC[C@@]23CCCN2C[C@H](F)C3)nc2c(F)c(-c3ccc(F)c4sc(N)c(C#N)c34)c(C(F)(F)F)cc12 [Compound 455]	0.1 to 1 µM	0.1 to 1 µM	0.1 to 1 µM	0.1 to 1 µM	< 0.1 µM	1 to 10 µM								

Further lines, results first:

IC50 (SW620 cells (KRAS G12V); [5])	IC50 ([1]; KRAS G12D-GppNHp/RAF1 RBD HTRF)	IC50 ([2]; KRAS G12R-GppNHp/RAF1 RBD HTRF)	IC50 ([3]; KRAS WT-GppNHp/RAF1 RBD HTRF)	IC50 (GP2d cells (KRAS G12D); GP2d)	IC50 ([4]; KRAS G12V-GppNHp/RAF1 RBD HTRF)	IC50 (SW620 cells (KRAS G12V); [6])	IC50 [1, 7]	IC50 [2, 8]	IC50 [3, 9]	IC50 (GP2d cells (KRAS G12D); GP2d, class symbols)	IC50 [4, 10]	IC50 (SW620 cells (KRAS G12V); SW620 (KRAS G12V) cells)	IC50 (GP2d cells (KRAS G12D))	Structure (SMILES)
						< 0.1 µM	< 0.1 µM	< 0.1 µM	< 0.1 µM	< 0.1 µM	< 0.1 µM			CCN(c1nc(OC[C@@]23CCCN2C[C@H](F)C3)nc2c(F)c(-c3ccc(F)c4sc(N)c(C#N)c34)c(C(F)(F)F)cc12)[C@H]1CCN(C(=O)c2cnsc2)C1 (atropisomer, axis not shown) [Compound 729]
						< 0.1 µM	0.1 to 1 µM	0.1 to 1 µM	0.1 to 1 µM	< 0.1 µM	0.1 to 1 µM			Cc1nnn2c1CN(c1nc(OC[C@@]34CCCN3C[C@H](F)C4)nc3c(F)c(-c4ccc(F)c5sc(N)c(C#N)c45)c(C(F)(F)F)cc13)[C@@H](C)C2 (atropisomer, axis not shown) [Compound 624]
						< 0.1 µM	0.1 to 1 µM	0.1 to 1 µM	0.1 to 1 µM	< 0.1 µM	0.1 to 1 µM			C[C@@H](c1cccnc1N)N(C)c1nc(OC[C@@]23CCCN2C[C@H](F)C3)nc2c(F)c(-c3ccc(F)c4sc(N)c(C#N)c34)c(C(F)(F)F)cc12 (atropisomer, axis not shown) [Compound 601]
						< 0.1 µM	1 to 10 µM	1 to 10 µM	0.1 to 1 µM	< 0.1 µM	1 to 10 µM			CC(=O)N1CC[C@H]2[C@@H]1CN2c1nc(OC[C@@]23CCCN2C[C@H](F)C3)nc2c(F)c(-c3ccc(F)c4sc(N)c(C#N)c34)c(C(F)(F)F)cc12 (atropisomer, axis not shown) [Compound 641]
						< 0.1 µM	< 0.1 µM	< 0.1 µM	< 0.1 µM	< 0.1 µM	< 0.1 µM			CCN(c1nc(OCC23CCCN2CC(F)C3)nc2c(F)c(-c3ccc(F)c4sc(N)c(C#N)c34)c(C(F)(F)F)cc12)C1CCN(C(=O)c2ncccn2)C1 (stereo not drawn) [Compound 712]
